Test results: US12201640B2, “19-nor C3,3-disubstituted C21-n-pyrazolyl steroids and methods of use thereof” (Sage Therapeutics, Inc., priority 2013, dated 2025)

Key:
GABAA receptor α1β2γ2 = biological target: T1, GABAA receptor α1β2γ2 (Homo sapiens, UniProt P14867+P47870); assay: Patch clamp electrophysiology, Qpatch in Ltk cells; assay type: cell-based; details: 10 μM test article, GABA EC20 2 μM, read-out: GABA (α1β2γ2) Qpatch in Ltk, % efficacy at 10 μM
T1 construct: expressed in transfected cells
Experimental: Patch Clamp Electrophysiology of Recombinant α1β2γ2 and α4β3δ GABAA Receptors
Cellular electrophysiology is used to measure the pharmacological properties of our GABAA receptor modulators in heterologous cell systems. Each compound is tested for its ability to affect GABA mediated currents at a submaximal agonist dose (GABA EC20=2 μM). LTK cells are stably transfected with the α1β2γ2 subunits of the GABA receptor and CHO cells are transiently transfected with the α4β3δ subunits via the Lipofecatamine method. Cells were passaged at a confluence of about 50-80% and then seeded onto 35 mm sterile culture dishes containing 2 ml culture complete medium without antibiotics or antimycotics. Confluent clusters of cells are electrically coupled (Pritchett et al., Science, 1988, 242, 1306-1308.). Because responses in distant cells are not adequately voltage clamped and because of uncertainties about the extent of coupling (Verdoorn et al., Neuron 1990, 4, 919-928.), cells were cultivated at a density that enables the recording of single cells (without visible connections to other cells).
Whole cell currents were measured with HEKA EPC-10 amplifiers using PatchMaster software or by using the high throughput QPatch platform (Sophion). Bath solution for all experiments contained (in mM): NaCl 137 mM, KCl 4 mM, CaCl2 1.8 mM, MgCl2 1 mM, HEPES 10 mM, D-Glucose 10 mM, pH (NaOH) 7.4. In some cases 0.005% cremophor was also added. Intracellular (pipette) solution contained: KCl 130 mM, MgCl2 1 mM, Mg-ATP 5 mM, HEPES 10 mM, EGTA 5 mM, pH 7.2. During experiments, cells and solutions were maintained at room temperature (19° C.-30° C.). For manual patch clamp recordings, cell culture dishes were placed on the dish holder of the microscope and continuously perfused (1 ml/min) with bath solution. After formation of a Gigaohm seal between the patch electrodes and the cell (pipette resistance range: 2.5 MΩ-6.0 MΩ; seal resistance range: >1 GΩ) the cell membrane across the pipette tip was ruptured to assure electrical access to the cell interior (whole-cell patch-configuration). For experiments using the QPatch system, cells were transferred as suspension to the QPatch system in the bath solution and automated whole cell recordings were performed.
Cells were voltage clamped at a holding potential of −80 mV. For the analysis of test articles, GABA receptors were stimulated by 2 μM GABA after sequential pre-incubation of increasing concentrations of the test article. Pre-incubation duration was 30 s and the duration of the GABA stimulus was 2 s. Test articles were dissolved in DMSO to form stock solutions (10 mM). Test articles were diluted to 0.01, 0.1, 1, and 10 μM in bath solution. All concentrations of test articles were tested on each cell. The relative percentage potentiation was defined as the peak amplitude in response to GABA EC20 in the presence of the test article divided by the peak amplitude in response to GABA EC20 alone, multiplied by 100.

[1] = biological target: [35S]-TBPS binding, rat brain cortical membranes (GABA receptor complex); assay: Steroid inhibition of [35S]-TBPS binding; details: 3 nM [35S]-TBPS, 5 μM GABA
Experimental: Steroid Inhibition of TBPS Binding
[35S]-t-Butylbicyclophosphorothionate (TBPS) binding assays using rat brain cortical membranes in the presence of 5 μM GABA has been described (Gee et al, J. Pharmacol. Exp. Ther. 1987, 241, 346-353; Hawkinson et al, Mol. Pharmacol. 1994, 46, 977-985; Lewin, A. H et al., Mol. Pharmacol. 1989, 35, 189-194).
Briefly, cortices are rapidly removed following decapitation of carbon dioxide-anesthetized Sprague-Dawley rats (200-250 g). The cortices are homogenized in 10 volumes of ice-cold 0.32 M sucrose using a glass/teflon homogenizer and centrifuged at 1500×g for 10 min at 4° C. The resultant supernatants are centrifuged at 10,000×g for 20 min at 4° C. to obtain the P2 pellets. The P2 pellets are resuspended in 200 mM NaCl/50 mM Na-K phosphate pH 7.4 buffer and centrifuged at 10,000×g for 10 min at 4° C. This washing procedure is repeated twice and the pellets are resuspended in 10 volumes of buffer. Aliquots (100 μL) of the membrane suspensions are incubated with 3 nM [^35S]-TBPS and 5 μL aliquots of test drug dissolved in dimethyl sulfoxide (DMSO) (final 0.5%) in the presence of 5 μM GABA. The incubation is brought to a final volume of 1.0 mL with buffer. Nonspecific binding is determined in the presence of 2 μM unlabeled TBPS and ranged from 15 to 25%. Following a 90 min incubation at room temp, the assays are terminated by filtration through glass fiber filters (Schleicher and Schuell No. 32) using a cell harvester (Brandel) and rinsed three times with ice-cold buffer. Filter bound radioactivity is measured by liquid scintillation spectrometry. Non-linear curve fitting of the overall data for each drug averaged for each concentration is done using Prism (GraphPad). […] The concentration of test compound producing 50% inhibition (IC50) of specific binding and the maximal extent of inhibition (Imax) are determined for the individual experiments with the same model used for the overall data and then the means±SEM.s of the individual experiments are calculated.
Various compounds are or can be screened to determine their potential as modulators of [^35S]-TBPS binding in vitro. These assays are or can be performed in accordance with the above discussed procedures.

T1 sequence (P14867 28-456): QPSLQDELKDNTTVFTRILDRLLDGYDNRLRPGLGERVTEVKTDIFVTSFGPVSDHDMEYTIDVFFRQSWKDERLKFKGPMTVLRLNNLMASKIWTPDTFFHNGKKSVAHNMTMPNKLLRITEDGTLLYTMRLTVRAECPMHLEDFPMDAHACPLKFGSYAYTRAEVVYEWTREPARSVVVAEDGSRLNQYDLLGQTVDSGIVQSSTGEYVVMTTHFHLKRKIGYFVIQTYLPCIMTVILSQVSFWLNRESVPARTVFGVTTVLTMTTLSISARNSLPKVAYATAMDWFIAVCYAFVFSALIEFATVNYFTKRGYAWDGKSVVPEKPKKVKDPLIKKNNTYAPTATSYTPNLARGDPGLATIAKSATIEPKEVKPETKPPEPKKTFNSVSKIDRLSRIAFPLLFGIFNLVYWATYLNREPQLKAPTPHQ
T1 sequence (P47870 25-512 limits assumed): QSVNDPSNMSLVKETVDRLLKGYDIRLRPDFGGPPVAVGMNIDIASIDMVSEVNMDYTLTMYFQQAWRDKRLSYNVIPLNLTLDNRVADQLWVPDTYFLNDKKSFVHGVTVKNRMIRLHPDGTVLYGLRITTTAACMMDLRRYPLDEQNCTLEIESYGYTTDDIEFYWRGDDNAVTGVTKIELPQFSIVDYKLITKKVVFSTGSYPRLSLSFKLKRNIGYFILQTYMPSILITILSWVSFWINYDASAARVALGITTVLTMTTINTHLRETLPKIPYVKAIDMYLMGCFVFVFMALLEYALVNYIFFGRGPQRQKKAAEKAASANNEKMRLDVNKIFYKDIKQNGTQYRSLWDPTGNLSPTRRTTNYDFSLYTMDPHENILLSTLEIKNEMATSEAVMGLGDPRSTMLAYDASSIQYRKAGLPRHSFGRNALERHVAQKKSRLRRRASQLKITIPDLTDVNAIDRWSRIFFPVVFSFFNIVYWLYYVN
T1 sequence (P18507 40-475 partner): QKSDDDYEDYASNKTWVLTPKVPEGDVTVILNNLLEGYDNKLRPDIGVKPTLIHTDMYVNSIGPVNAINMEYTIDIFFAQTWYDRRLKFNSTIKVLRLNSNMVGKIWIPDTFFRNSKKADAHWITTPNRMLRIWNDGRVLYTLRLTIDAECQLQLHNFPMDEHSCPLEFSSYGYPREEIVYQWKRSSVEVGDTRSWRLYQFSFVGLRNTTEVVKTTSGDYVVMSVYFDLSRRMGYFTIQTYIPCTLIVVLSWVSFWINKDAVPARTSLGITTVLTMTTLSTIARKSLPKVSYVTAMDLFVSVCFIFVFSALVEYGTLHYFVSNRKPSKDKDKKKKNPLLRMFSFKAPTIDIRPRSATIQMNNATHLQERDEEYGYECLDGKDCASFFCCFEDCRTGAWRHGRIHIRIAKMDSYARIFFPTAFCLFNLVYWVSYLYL

CO[C@H]1C[C@H]2[C@@H](CC[C@@H]3[C@@H]2CC[C@]2(C)[C@@H](C(=O)Cn4cccn4)CC[C@@H]32)C[C@]1(C)O [SB-19]
Emax at 10 µM (GABAA receptor α1β2γ2): > 500% | IC50 [1]: 100 to 500 nM

CC[C@@]1(O)CC[C@H]2[C@@H](CC[C@@H]3[C@@H]2CC[C@]2(C)[C@@H](C(=O)Cn4cccn4)CC[C@@H]32)C1 [SB-20]
IC50 [1]: ≥ 500 nM

COC[C@@]1(O)CC[C@H]2[C@@H](CC[C@@H]3[C@@H]2CC[C@]2(C)[C@@H](C(=O)Cn4cccn4)CC[C@@H]32)C1 [SB-4]
Emax at 10 µM (GABAA receptor α1β2γ2): > 500% | IC50 [1]: 100 to 500 nM

C[C@]12CC[C@H]3[C@@H](CC[C@@H]4C[C@@](O)(C(F)F)CC[C@@H]43)[C@@H]1CC[C@@H]2C(=O)Cn1cc(S(C)(=O)=O)cn1 [SA-29]
IC50 [1]: ≥ 500 nM

C[C@]12CC[C@H]3[C@@H](CC[C@@H]4C[C@@](O)(C(F)F)CC[C@@H]43)[C@@H]1CC[C@@H]2C(=O)Cn1cccn1 [SA-27]
Emax at 10 µM (GABAA receptor α1β2γ2): 100 to 500% | IC50 [1]: 100 to 500 nM

COC[C@@]1(O)CC[C@H]2[C@@H](CC[C@@H]3[C@@H]2CC[C@]2(C)[C@@H](C(=O)Cn4cc(S(C)(=O)=O)cn4)CC[C@@H]32)C1 [SB-7]
IC50 [1]: ≥ 500 nM

C[C@@]1(O)CC[C@H]2[C@H](CC[C@@H]3[C@@H]2CC[C@]2(C)[C@@H](C(=O)Cn4cc(F)cn4)CC[C@@H]32)C1 [SA-21]
Emax at 10 µM (GABAA receptor α1β2γ2): > 500%

C[C@@]1(O)CC[C@@H]2[C@H]3CC[C@]4(C)[C@@H](C(=O)Cn5cccn5)CC[C@H]4[C@@H]3C[C@@H](F)[C@@H]2C1 [SA-25]
IC50 [1]: ≥ 500 nM

CSc1cnn(CC(=O)[C@H]2CC[C@H]3[C@@H]4CC[C@@H]5C[C@](C)(O)CC[C@@H]5[C@H]4CC[C@]23C)c1 [SA-18]
Emax at 10 µM (GABAA receptor α1β2γ2): > 500%

C[C@]12CC[C@H]3[C@@H](CC[C@H]4C[C@@](O)(CF)CC[C@@H]43)[C@@H]1CC[C@@H]2C(=O)Cn1cccn1 [SB-23]
Emax at 10 µM (GABAA receptor α1β2γ2): 100 to 500% | IC50 [1]: 100 to 500 nM

C[C@]12CC[C@H]3[C@@H](CC[C@@H]4C[C@@](O)(CF)CC[C@@H]43)[C@@H]1CC[C@@H]2C(=O)Cn1cccn1 [SA-31]
Emax at 10 µM (GABAA receptor α1β2γ2): 100 to 500% | IC50 [1]: 100 to 500 nM

C[C@@]1(O)CC[C@H]2[C@@H](CC[C@@H]3[C@@H]2CC[C@]2(C)[C@@H](C(=O)Cn4cc(S(C)(=O)=O)cn4)CC[C@@H]32)C1 [SB-3]
IC50 [1]: ≥ 500 nM

C[C@]12CC[C@H]3[C@@H](CC[C@H]4C[C@@](O)(CF)CC[C@@H]43)[C@@H]1CC[C@@H]2C(=O)Cn1cc(C#N)cn1 [SB-22]
Emax at 10 µM (GABAA receptor α1β2γ2): > 500% | IC50 [1]: 100 to 500 nM

C[C@]12CC[C@H]3[C@@H](CC[C@@H]4C[C@@](O)(CF)CC[C@@H]43)[C@@H]1CC[C@@H]2C(=O)Cn1cc(S(C)(=O)=O)cn1 [SA-33]
IC50 [1]: ≥ 500 nM

CC[C@@]1(O)CC[C@H]2[C@H](CC[C@@H]3[C@@H]2CC[C@]2(C)[C@@H](C(=O)Cn4cc(C#N)cn4)CC[C@@H]32)C1 [SA-30]
Emax at 10 µM (GABAA receptor α1β2γ2): 100 to 500%

CCOC[C@@]1(O)CC[C@H]2[C@@H](CC[C@@H]3[C@@H]2CC[C@]2(C)[C@@H](C(=O)Cn4cc(C#N)cn4)CC[C@@H]32)C1 [SB-9]
Emax at 10 µM (GABAA receptor α1β2γ2): 100 to 500%

C[C@@H]1C[C@H]2[C@@H](CC[C@@H]3[C@@H]2CC[C@]2(C)[C@@H](C(=O)Cn4cccn4)CC[C@@H]32)C[C@]1(C)O [SB-18]
Emax at 10 µM (GABAA receptor α1β2γ2): 100 to 500% | IC50 [1]: 100 to 500 nM

CC[C@@]1(O)CC[C@H]2[C@@H](CC[C@@H]3[C@@H]2CC[C@]2(C)[C@@H](C(=O)Cn4cc(C#N)cn4)CC[C@@H]32)C1 [SB-21]
Emax at 10 µM (GABAA receptor α1β2γ2): 100 to 500%

C[C@]12CC[C@H]3[C@@H](CC[C@@H]4C[C@@](O)(C(F)F)CC[C@@H]43)[C@@H]1CC[C@@H]2C(=O)Cn1cc(C#N)cn1 [SA-28]
Emax at 10 µM (GABAA receptor α1β2γ2): > 500%

C[C@@]1(O)CC[C@@H]2[C@H]3CC[C@]4(C)[C@@H](C(=O)Cn5ccc(C#N)n5)CC[C@H]4[C@@H]3C[C@@H](F)[C@H]2C1 [SB-13]
Emax at 10 µM (GABAA receptor α1β2γ2): 100 to 500%

Cc1cc(C)n(CC(=O)[C@H]2CC[C@H]3[C@@H]4CC[C@@H]5C[C@](C)(O)CC[C@@H]5[C@H]4CC[C@]23C)n1 [SA-12]
Emax at 10 µM (GABAA receptor α1β2γ2): 100 to 500% | IC50 [1]: 10 to 50 nM

C[C@@]1(O)CC[C@H]2[C@H](CC[C@@H]3[C@@H]2CC[C@]2(C)[C@@H](C(=O)Cn4cc(C(F)(F)F)cn4)CC[C@@H]32)C1 [SA-14]
Emax at 10 µM (GABAA receptor α1β2γ2): 100 to 500%

CSc1cnn(CC(=O)[C@H]2CC[C@H]3[C@@H]4C[C@@H](F)[C@H]5C[C@](C)(O)CC[C@@H]5[C@H]4CC[C@]23C)c1 [SB-14]
Emax at 10 µM (GABAA receptor α1β2γ2): 100 to 500%

CC[C@@]1(O)CC[C@H]2[C@H](CC[C@@H]3[C@@H]2CC[C@]2(C)[C@@H](C(=O)Cn4cccn4)CC[C@@H]32)C1 [SA-35]
Emax at 10 µM (GABAA receptor α1β2γ2): 100 to 500% | IC50 [1]: 100 to 500 nM

Cc1cn(CC(=O)[C@H]2CC[C@H]3[C@@H]4CC[C@@H]5C[C@](C)(O)CC[C@@H]5[C@H]4CC[C@]23C)nc1C [SA-15]
Emax at 10 µM (GABAA receptor α1β2γ2): 100 to 500%

COC[C@@]1(O)CC[C@H]2[C@H](CC[C@@H]3[C@@H]2CC[C@]2(C)[C@@H](C(=O)Cn4cccn4)CC[C@@H]32)C1 [SA-23]
Emax at 10 µM (GABAA receptor α1β2γ2): > 500% | IC50 [1]: 100 to 500 nM

CCOC[C@@]1(O)CC[C@H]2[C@@H](CC[C@@H]3[C@@H]2CC[C@]2(C)[C@@H](C(=O)Cn4cccn4)CC[C@@H]32)C1 [SB-8]
IC50 [1]: ≥ 500 nM

Cc1cnn(CC(=O)[C@H]2CC[C@H]3[C@@H]4C[C@@H](F)[C@H]5C[C@](C)(O)CC[C@@H]5[C@H]4CC[C@]23C)c1 [SB-12]
Emax at 10 µM (GABAA receptor α1β2γ2): 100 to 500%

CCOC(=O)c1cnn(CC(=O)[C@H]2CC[C@H]3[C@@H]4CC[C@@H]5C[C@](C)(O)CC[C@@H]5[C@H]4CC[C@]23C)c1 [SA-3]
Emax at 10 µM (GABAA receptor α1β2γ2): > 500% | IC50 [1]: < 10 nM

CCc1cnn(CC(=O)[C@H]2CC[C@H]3[C@@H]4CC[C@@H]5C[C@](C)(O)CC[C@@H]5[C@H]4CC[C@]23C)c1 [SA-16]
Emax at 10 µM (GABAA receptor α1β2γ2): > 500%

C[S+]([O-])c1cnn(CC(=O)[C@H]2CC[C@H]3[C@@H]4CC[C@@H]5C[C@](C)(O)CC[C@@H]5[C@H]4CC[C@]23C)c1 (stereo partly drawn) [SA-20]
Emax at 10 µM (GABAA receptor α1β2γ2): 100 to 500%
